Activity calls are given as the source filed them. The calls are words filed in the database; no cut-off is given here.
Key:
[1] = target: DNA polymerase beta (Homo sapiens) (UniProt P06746); assay: Binding affinity to human DNA polymerase beta with homo-lysine modification at 72 assessed as inhibition of dRP excision in presence of 32P-end labelled duplex DNA at 25 uM by SDS PAGE
[2] = target: DNA polymerase beta (Homo sapiens) (UniProt P06746); assay: Binding affinity to human DNA polymerase beta with methyl-lysine modification at 72 assessed as inhibition of dRP excision in presence of 32P-end labelled duplex DNA at 25 uM by SDS PAGE
[3] = target: DNA polymerase beta (Homo sapiens) (UniProt P06746); assay: Binding affinity to wild type human DNA polymerase beta assessed as inhibition of dRP excision in presence of 32P-end labelled duplex DNA at 25 uM by SDS PAGE analysis
[4] = target: DNA polymerase beta (Rattus norvegicus) (UniProt P06766); assay: Binding affinity to rat DNA polymerase beta with homo-lysine modification at 72 assessed as inhibition of dRP excision in presence of 32P-end labelled duplex DNA at 50 uM by SDS PAGE
[5] = target: DNA polymerase beta (Rattus norvegicus) (UniProt P06766); assay: Binding affinity to rat DNA polymerase beta with methyl-lysine modification at 72 assessed as inhibition of dRP excision in presence of 32P-end labelled duplex DNA at 50 uM by SDS PAGE
[6] = target: DNA polymerase beta (Rattus norvegicus) (UniProt P06766); assay: Binding affinity to wild type rat DNA polymerase beta assessed as inhibition of dRP excision in presence of 32P-end labelled duplex DNA at 50 uM by SDS PAGE analysis
[7] = target: DNA polymerase beta (Rattus norvegicus) (UniProt P06766); assay: Binding affinity to wild type rat DNA polymerase beta assessed as inhibition of dRP excision in presence of 32P-end labelled duplex DNA at 25 uM by SDS PAGE analysis
[8] = target: DNA polymerase beta (Rattus norvegicus) (UniProt P06766); assay: Binding affinity to rat DNA polymerase beta with methyl-lysine modification at 72 assessed as inhibition of dRP excision in presence of 32P-end labelled duplex DNA at 25 uM by SDS PAGE
[9] = target: DNA polymerase beta (Rattus norvegicus) (UniProt P06766); assay: Binding affinity to rat DNA polymerase beta with homo-lysine modification at 72 assessed as inhibition of dRP excision in presence of 32P-end labelled duplex DNA at 25 uM by SDS PAGE
[10] = target: DNA polymerase beta (Rattus norvegicus) (UniProt P06766); assay: Binding affinity to wild type rat DNA polymerase beta assessed as inhibition of dRP excision in presence of 32P-end labelled duplex DNA at 10 uM by SDS PAGE analysis
[11] = target: DNA polymerase beta (Rattus norvegicus) (UniProt P06766); assay: Binding affinity to rat DNA polymerase beta with methyl-lysine modification at 72 assessed as inhibition of dRP excision in presence of 32P-end labelled duplex DNA at 10 uM by SDS PAGE
[12] = target: DNA polymerase beta (Rattus norvegicus) (UniProt P06766); assay: Binding affinity to rat DNA polymerase beta with homo-lysine modification at 72 assessed as inhibition of dRP excision in presence of 32P-end labelled duplex DNA at 10 uM by SDS PAGE

| Compound | inhibition [1] | inhibition [2] | inhibition [3] | inhibition [4] | inhibition [5] | inhibition [6] | inhibition [7] | inhibition [8] | inhibition [9] | inhibition [10] | inhibition [11] | inhibition [12] |
| --- | --- | --- | --- | --- | --- | --- | --- | --- | --- | --- | --- | --- |
| CC[C@H](/C=C/[C@@H](C)[C@H]1CC[C@H]2[C@@H]3CC=C4C[C@@H](O)CC[C@]4(C)[C@H]3CC[C@]12C)C(C)C | Active | Active | Active | Active | Active | Active |  |  |  |  |  |  |
| O=C(O)c1ccc(O)c(O)c1 | Active | Active | Active | 25% | 50% | 50% |  |  |  |  |  |  |
| CC[C@H](CC[C@@H](C)[C@H]1CC[C@H]2[C@@H]3CCC4C[C@@H](OC(=O)c5ccccc5)CC[C@]4(C)[C@H]3CC[C@]12C)C(C)C (some centres not stated) | Active | Active | Active | Active | Active | Active |  |  |  |  |  |  |
| CCCCCCCC[C@H]1O[C@H]1CCCCCCCC(=O)O (racemic) |  |  |  | inactive | Active | Active | Active | Active | inactive |  |  |  |
| CCCCCCCCC(O)C(O)CCCCCCCC(=O)O (racemic) |  |  |  |  |  |  |  |  |  | Active | Active | Active |

Source: ChEMBL document CHEMBL4665737, “An assay for DNA polymerase β lyase inhibitors that engage the catalytic nucleophile for binding” (Bioorg Med Chem, 2020)
